Data: patent US8017554B2, “3-amino-1,2-benzisothiazole compounds for combating animal pest” (BASF SE, priority 2006, dated 2011)

`CCN1C(=N)c2c(OC)cccc2S1(=O)=O` [Compound example 3, 2-Ethyl-4-methoxy-1,1-dioxo-1,2-dihydro-1λ*6*-benzo[d]isothiazol-3-ylideneamine] gave a melting point of 111 to 114 °C.
